The values that follow come from publication PMC4503722, “Novel Phenotypic Outcomes Identified for a Public Collection of Approved Drugs from a Publicly Accessible Panel of Assays” (PLoS ONE, 2015).

The structures appear in SMILES notation. Like-named read-outs stand apart in the source and are kept apart here.

One test relates to NCI-H716 cells. Put plainly: cells. It is filed as cell-based, Human.
For a further test, the system named is STC-1 cell line. It is filed as cell-based, mouse.
Test [1] has as its system endothelial tube formation in co-cultures of ECFCs and ADSCs treated with VEGF. In words: cells. It counts as cell-based, human.
In test [2] the test system is nuclear β-catenin in C2C12 cells. Put plainly: cells. It is filed as cell-based.
For a further test, the system named is INS-1E cells. In words: cells. It counts as cell-based, rat.
The next test deals with HeLa cells. In words: cells. It is filed as cell-based. The conditions noted are these: for EC50: Homo sapiens, HeLa, read-out: CellCycle G2/M.
In a further test the test system is DLD-1. In words: cells. It counts as cell-based. The conditions noted are these: Homo sapiens.
For another test, the system named is SW480. In words: cells. It is filed as cell-based. The conditions noted are these: Homo sapiens.
The subject of another test is HCT116. In words: cells. It is filed as cell-based. The conditions noted are these: Homo sapiens.
Test [3] concerns HCT116 cells treated with a GSK3β inhibitor. Put plainly: cells. It counts as cell-based. The conditions noted are these: Homo sapiens.
A further test deals with Colo320. In words: cells. It is filed as cell-based. The conditions noted are these: Homo sapiens.
A further test deals with HT-29. Put plainly: cells. It counts as cell-based.
The subject of another test is RKO. In words: cells. It counts as cell-based.
The next test deals with SNU-C1. Put plainly: cells. The conditions noted are these: Homo sapiens. It is filed as cell-based.
Another test concerns the target T1, hp70S6K1 (RPS6KB1) (Homo sapiens, UniProt P23443).
T1 construct: purchased Cerep (LANCE kinase assay platform, contract assay)
In words: Cerep LANCE kinase assay hp70S6K1 (S1 assay 31). It is filed as biochemical. The conditions noted are these: read-out: p70S6K1. On the technique in general: TR-FRET usually uses a lanthanide donor and a delayed reading to cut background.

The target of a further test is T2, hKDR (Homo sapiens, UniProt P35968).
T2 construct: purchased Cerep (LANCE kinase assay platform, contract assay)
Put plainly: Cerep LANCE kinase assay hKDR (S1 assay 32). It counts as biochemical. The conditions noted are these: read-out: KDR.

The target of the next test is T3, hJAK2 (Homo sapiens, UniProt O60674).
T3 construct: purchased Cerep (LANCE kinase assay platform, contract assay)
Put plainly: Cerep LANCE kinase assay hJAK2 (S1 assay 33). It is filed as biochemical. The conditions noted are these: read-out: JAK2.

The target in another test is T4, hGSK3b (Homo sapiens, UniProt P49841).
T4 construct: purchased Cerep (LANCE kinase assay platform, contract assay)
In words: Cerep LANCE kinase assay hGSK3b (S1 assay 34). It counts as biochemical. The conditions noted are these: read-out: GSK3b.

In a further test the target is T5, hFLT3 (Homo sapiens, UniProt P36888).
T5 construct: purchased Cerep (LANCE kinase assay platform, contract assay)
In words: Cerep LANCE kinase assay hFLT3 (S1 assay 35). It is filed as biochemical. The conditions noted are these: read-out: FLT3.

The mark [4] stands for this setting: DLD-1, 72 h, read-out: DLD-1 viab. IC50.
Where [5] appears, read: HCT-116, 72 h, read-out: HCT-116 (GSK3β) viab. IC50.
The mark [6] stands for this setting: HCT-116, read-out: GSK3b inh pretreated_Viability ATP HCT116.
Where [7] appears, read: Homo sapiens, read-out: Anti-Angio IC50.
[8] abbreviates: Homo sapiens, read-out: Anti-Angiogenesis.
The mark [9] stands for this setting: Mus musculus, C2C12, read-out: Wnt Pathway.
Setting [10] is: Mus musculus, C2C12, read-out: Wnt pot. EC50.
The mark [11] stands for this setting: Rattus norvegicus, INS-1E, read-out: Ins. sec. EC50.
Setting [12] is: Homo sapiens, NCI-H716, read-out: GLP1 sec. EC50.
Setting [13] is: SW480, 72 h, read-out: SW480 viab. IC50.
Setting [14] is: HCT-116, 72 h, read-out: HCT-116 viab. IC50.
[15] abbreviates: HCT-116, read-out: Basal_Viability ATP HCT116.
Setting [16] is: COLO 320, 72 h, read-out: Colo320 viab. IC50.
The mark [17] stands for this setting: Homo sapiens, HT-29, 72 h, read-out: HT-29 viab. IC50.
Where [18] appears, read: Homo sapiens, RKO, 72 h, read-out: RKO viab. IC50.
Where [19] appears, read: Homo sapiens, RKO, read-out: Basal_Viability ATP RKO.
Where [20] appears, read: SNU-C1, 72 h, read-out: SNU-C1 viab. IC50.

T1 sequence (P23443 whole entry): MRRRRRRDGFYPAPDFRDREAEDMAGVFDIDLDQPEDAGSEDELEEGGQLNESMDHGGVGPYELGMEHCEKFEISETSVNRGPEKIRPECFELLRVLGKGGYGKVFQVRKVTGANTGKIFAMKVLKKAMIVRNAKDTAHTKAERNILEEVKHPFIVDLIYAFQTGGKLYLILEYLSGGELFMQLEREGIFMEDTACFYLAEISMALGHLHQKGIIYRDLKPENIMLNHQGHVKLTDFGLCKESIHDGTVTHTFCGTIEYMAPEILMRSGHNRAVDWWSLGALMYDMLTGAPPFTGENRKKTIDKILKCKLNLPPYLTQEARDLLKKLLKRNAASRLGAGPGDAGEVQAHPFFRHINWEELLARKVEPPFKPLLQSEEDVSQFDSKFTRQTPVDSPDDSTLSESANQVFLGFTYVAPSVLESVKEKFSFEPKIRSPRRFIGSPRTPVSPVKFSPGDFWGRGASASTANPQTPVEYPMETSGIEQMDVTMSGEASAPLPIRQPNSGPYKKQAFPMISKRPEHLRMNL
T4 sequence (P49841 whole entry): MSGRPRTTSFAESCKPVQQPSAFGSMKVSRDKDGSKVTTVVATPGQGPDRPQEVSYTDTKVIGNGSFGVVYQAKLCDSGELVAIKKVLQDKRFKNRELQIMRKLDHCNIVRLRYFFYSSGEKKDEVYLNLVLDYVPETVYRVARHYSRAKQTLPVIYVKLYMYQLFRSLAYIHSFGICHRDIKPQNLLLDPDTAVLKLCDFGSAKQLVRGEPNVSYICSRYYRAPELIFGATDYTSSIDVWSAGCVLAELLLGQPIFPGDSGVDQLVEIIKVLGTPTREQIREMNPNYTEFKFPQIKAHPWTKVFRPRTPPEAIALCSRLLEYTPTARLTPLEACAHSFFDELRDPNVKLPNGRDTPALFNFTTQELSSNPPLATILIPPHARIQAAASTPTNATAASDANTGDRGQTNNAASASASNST
T2 sequence (P35968 20-1356): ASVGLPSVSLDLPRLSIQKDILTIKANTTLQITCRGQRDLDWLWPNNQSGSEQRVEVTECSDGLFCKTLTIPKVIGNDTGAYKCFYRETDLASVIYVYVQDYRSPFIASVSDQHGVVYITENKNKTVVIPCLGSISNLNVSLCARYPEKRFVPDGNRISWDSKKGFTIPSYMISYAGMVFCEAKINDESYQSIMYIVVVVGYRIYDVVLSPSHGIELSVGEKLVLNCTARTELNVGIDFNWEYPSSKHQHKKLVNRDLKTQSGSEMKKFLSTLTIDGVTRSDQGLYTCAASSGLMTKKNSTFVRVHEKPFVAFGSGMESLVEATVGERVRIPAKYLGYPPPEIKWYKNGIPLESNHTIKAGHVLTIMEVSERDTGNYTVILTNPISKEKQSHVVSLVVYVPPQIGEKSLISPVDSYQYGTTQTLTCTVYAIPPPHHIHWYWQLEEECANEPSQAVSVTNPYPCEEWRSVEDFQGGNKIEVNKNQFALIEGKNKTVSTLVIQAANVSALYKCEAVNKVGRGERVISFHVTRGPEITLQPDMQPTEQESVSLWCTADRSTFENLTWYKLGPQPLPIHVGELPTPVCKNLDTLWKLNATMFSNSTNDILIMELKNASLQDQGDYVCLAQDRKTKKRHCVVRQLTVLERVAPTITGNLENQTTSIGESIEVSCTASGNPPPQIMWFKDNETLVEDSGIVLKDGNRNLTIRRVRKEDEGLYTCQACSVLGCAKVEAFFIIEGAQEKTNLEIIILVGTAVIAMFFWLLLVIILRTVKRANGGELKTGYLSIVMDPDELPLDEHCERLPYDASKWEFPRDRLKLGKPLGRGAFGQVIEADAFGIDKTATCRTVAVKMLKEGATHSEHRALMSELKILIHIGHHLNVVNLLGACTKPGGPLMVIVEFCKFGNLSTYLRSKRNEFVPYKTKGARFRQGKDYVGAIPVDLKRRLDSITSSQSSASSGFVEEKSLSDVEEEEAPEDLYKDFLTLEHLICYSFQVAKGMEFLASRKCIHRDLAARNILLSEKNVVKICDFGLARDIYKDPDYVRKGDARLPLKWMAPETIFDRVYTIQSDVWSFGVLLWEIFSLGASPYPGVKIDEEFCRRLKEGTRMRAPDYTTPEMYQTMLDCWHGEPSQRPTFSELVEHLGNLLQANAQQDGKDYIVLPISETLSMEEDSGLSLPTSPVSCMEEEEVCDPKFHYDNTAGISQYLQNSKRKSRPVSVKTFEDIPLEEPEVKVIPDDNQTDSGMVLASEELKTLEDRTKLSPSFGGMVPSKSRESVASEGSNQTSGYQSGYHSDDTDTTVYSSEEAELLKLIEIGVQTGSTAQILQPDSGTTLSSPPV
T5 sequence (P36888 27-993): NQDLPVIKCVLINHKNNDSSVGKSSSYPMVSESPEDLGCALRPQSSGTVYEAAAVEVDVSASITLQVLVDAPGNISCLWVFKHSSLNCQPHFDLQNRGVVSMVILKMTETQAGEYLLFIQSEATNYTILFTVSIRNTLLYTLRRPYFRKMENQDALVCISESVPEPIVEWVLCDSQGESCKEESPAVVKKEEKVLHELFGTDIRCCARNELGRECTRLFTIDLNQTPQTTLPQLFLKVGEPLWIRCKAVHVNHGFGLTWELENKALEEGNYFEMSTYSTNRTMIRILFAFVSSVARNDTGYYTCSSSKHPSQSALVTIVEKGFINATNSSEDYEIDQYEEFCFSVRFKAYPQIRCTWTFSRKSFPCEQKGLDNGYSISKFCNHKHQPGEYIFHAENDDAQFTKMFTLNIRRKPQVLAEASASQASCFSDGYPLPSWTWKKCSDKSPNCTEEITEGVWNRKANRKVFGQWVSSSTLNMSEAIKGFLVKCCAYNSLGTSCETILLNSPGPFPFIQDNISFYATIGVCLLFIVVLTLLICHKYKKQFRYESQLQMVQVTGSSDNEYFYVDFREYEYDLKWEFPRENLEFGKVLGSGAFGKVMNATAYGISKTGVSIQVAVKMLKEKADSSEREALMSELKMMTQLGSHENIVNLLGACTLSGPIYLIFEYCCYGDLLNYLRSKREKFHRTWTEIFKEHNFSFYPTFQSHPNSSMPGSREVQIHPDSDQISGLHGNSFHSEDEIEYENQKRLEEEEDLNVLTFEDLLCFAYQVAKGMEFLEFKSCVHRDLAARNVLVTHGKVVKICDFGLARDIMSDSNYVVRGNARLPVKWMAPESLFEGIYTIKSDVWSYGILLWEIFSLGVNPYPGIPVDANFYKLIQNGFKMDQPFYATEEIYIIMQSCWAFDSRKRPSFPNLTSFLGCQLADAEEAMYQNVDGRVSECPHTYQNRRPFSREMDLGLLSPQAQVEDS
T3 sequence (O60674 whole entry): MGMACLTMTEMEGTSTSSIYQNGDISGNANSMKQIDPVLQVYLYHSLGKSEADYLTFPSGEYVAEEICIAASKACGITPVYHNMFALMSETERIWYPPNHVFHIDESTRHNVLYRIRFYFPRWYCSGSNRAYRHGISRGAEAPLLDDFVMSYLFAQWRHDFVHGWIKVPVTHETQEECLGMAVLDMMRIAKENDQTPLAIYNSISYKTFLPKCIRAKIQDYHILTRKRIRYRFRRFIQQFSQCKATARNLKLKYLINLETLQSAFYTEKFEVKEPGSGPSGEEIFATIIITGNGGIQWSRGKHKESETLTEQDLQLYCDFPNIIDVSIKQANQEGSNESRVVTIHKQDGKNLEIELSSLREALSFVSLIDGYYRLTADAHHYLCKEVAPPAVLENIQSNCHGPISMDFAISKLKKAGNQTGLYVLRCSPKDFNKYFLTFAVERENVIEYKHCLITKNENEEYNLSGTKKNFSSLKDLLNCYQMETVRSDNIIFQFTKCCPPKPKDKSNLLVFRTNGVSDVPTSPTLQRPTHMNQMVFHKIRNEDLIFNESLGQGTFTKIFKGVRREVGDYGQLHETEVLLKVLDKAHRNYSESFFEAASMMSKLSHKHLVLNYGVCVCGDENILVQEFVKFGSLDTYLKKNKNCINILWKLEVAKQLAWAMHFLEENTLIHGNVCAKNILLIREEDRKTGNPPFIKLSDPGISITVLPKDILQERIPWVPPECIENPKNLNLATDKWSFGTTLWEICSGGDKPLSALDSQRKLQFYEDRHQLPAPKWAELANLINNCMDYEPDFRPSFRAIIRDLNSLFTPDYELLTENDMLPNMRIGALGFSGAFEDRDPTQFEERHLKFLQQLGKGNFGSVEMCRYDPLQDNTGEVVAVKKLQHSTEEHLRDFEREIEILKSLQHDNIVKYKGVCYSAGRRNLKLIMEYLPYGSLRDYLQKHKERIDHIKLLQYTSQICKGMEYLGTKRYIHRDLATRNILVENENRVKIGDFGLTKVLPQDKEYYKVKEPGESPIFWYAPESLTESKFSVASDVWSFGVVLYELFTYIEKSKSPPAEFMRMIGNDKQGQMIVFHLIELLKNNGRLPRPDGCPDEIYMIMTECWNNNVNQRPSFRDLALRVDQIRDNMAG

As for `c1ccc2ccccc2c1` [NCGC00090793-05], the “hNCI-H716 GLP1 Secretion IC50/EC50” value with NCI-H716 cells (assay number 12) was 20768.5 nM. Besides, the “mSTC-1 GLP1 Secretion IC50/EC50” value in the test with STC-1 cell line (assay number 13) is > 40000 nM.

As for `CC(=O)NO` [NCGC00094576-05], the “hNCI-H716 GLP1 Secretion IC50/EC50” value in the test on NCI-H716 cells (assay number 12) was > 40000 nM. Also, the “mSTC-1 GLP1 Secretion IC50/EC50” value in the test on STC-1 cell line (assay number 13) was > 40000 nM.

Regarding `CCCCC(CC)CN1CN(CC(CC)CCCC)CC(C)(N)C1` (centres unmarked) [NCGC00094819-07], the “hNCI-H716 GLP1 Secretion IC50/EC50” value in the test with NCI-H716 cells (assay number 12) was 36442.2 nM. Besides, the “mSTC-1 GLP1 Secretion IC50/EC50” value with STC-1 cell line (assay number 13) amounted to 26572.9 nM.

For the compound `CCCCCCCCCCCCCCCCCCOCC(O)CO` (centres unmarked) [NCGC00095748-04], the “hNCI-H716 GLP1 Secretion IC50/EC50” value with NCI-H716 cells (assay number 12) is > 40000 nM. In the test on STC-1 cell line (assay number 13), the “mSTC-1 GLP1 Secretion IC50/EC50” value is > 40000 nM.

In the case of `CC1=C(C(=O)O)N2C(=O)[C@@H](NC(=O)[C@H](N)c3ccccc3)[C@H]2SC1` [NCGC00159522-05], in the test with NCI-H716 cells (assay number 12), the “hNCI-H716 GLP1 Secretion IC50/EC50” value was > 40000 nM. In the test with STC-1 cell line (assay number 13), the “mSTC-1 GLP1 Secretion IC50/EC50” value was > 40000 nM.

With `O=c1oc2ccccc2c(O)c1C(CC(O)c1ccc(-c2ccc(Br)cc2)cc1)c1ccccc1` (centres unmarked) [NCGC00163939-02], the “hNCI-H716 GLP1 Secretion IC50/EC50” value with NCI-H716 cells is > 40000 nM. Moreover, the “mSTC-1 GLP1 Secretion IC50/EC50” value with STC-1 cell line stood at 9160.9 nM.

For `Cc1ccc2nc(N)[nH]c(=O)c2c1Sc1ccncc1` [nolatrexed, reference compound], the IC50 is 7370 nM in [1] (Homo sapiens, IC50 / EC50; endothelial tube area, ADSC/ECFC co-culture; read-out: Anti-Angiogenesis); 7400 nM in test [1] (Homo sapiens; read-out: Anti-Angio IC50); > 20000 nM in the test on DLD-1 (setting [4]); 2200 nM in the test on SW480 (SW480, 72 h, Table 2, 72 h, Cell TiterGlo, non-adherent, 20 coded, read-out: SW480 viab. IC50); 2240 nM in the test on SW480 (SW480, basal, read-out: Basal_Viability ATP SW480); 3500 nM with HCT116 (HCT-116, 72 h, read-out: HCT-116 viab. IC50, Table 2, basal, 72 h, Cell TiterGlo, non-adherent, 20 coded). The IC50 with HCT116 (HCT-116, basal, read-out: Basal_Viability ATP HCT116) was 3500 nM; in test [3] (setting [5]), 830 nM; in [3] (setting [6]) it was 830 nM; with Colo320 (COLO 320, Table 2, 72 h, Cell TiterGlo, non-adherent, 20 coded, read-out: Colo320 viab. IC50) it was > 20000 nM; with HT-29 (Homo sapiens, HT-29; Table 2; 72 h, Cell TiterGlo, non-adherent; 20 coded; read-out: HT-29 viab. IC50), 4700 nM; in the test on HT-29 (Homo sapiens, HT-29; read-out: Basal_Viability ATP HT-29), 4750 nM. The IC50 is 340 nM in the test on RKO (Homo sapiens, RKO; Table 2; 72 h, Cell TiterGlo, non-adherent; 20 coded; read-out: RKO viab. IC50); 343 nM with RKO (Homo sapiens, RKO; read-out: Basal_Viability ATP RKO); > 20000 nM in the test with SNU-C1 (SNU-C1, 72 h, Table 2, 72 h, Cell TiterGlo, non-adherent, 20 coded, read-out: SNU-C1 viab. IC50); 17800 nM at hp70S6K1 (RPS6KB1); > 20000 nM on hKDR; > 20000 nM on hJAK2. The IC50 on hGSK3b and at hFLT3 was > 20000 nM each time. In addition, the EC50 in test [2] (Mus musculus, C2C12, IC50 / EC50; C2C12 beta-catenin translocation; read-out: Wnt Pathway) was 244 nM; in [2] (Mus musculus, C2C12; read-out: Wnt pot. EC50), 240 nM; with INS-1E cells (Rattus norvegicus, INS-1E; read-out: Ins. sec. EC50), > 10000 nM; with NCI-H716 cells (Homo sapiens, NCI-H716; read-out: GLP1 sec. EC50), > 10000 nM; with HeLa cells (IC50 / EC50) it was > 10000 nM. Further, the “G2/M IC50 / EC50” value with HeLa cells was 20 (values shown as 20 indicate that the compound was tested in concentration-response and showed no response at the highest concentration tested (e.g. IC50 > 20 μM)).

Turning to `Cc1nc2ccc(CN(C)c3ccc(C(=O)N[C@@H](CCC(=O)O)C(=O)O)s3)cc2c(=O)[nH]1` [raltitrexed, reference compound], the IC50 in test [1] (setting [7]) was 350 nM; in test [1] (setting [8]), 354 nM; with DLD-1 (setting [4]), > 20000 nM; with SW480 (setting [13]) it was 1 nM; in the test with HCT116 (setting [14]), 4 nM; in the test on HCT116 (setting [15]), 4.24 nM. Also, the IC50 in [3] (setting [5]) was 2 nM; in test [3] (setting [6]), 2.3 nM; in the test with Colo320 (setting [16]), > 20000 nM; in the test on HT-29 (setting [17]), > 20000 nM; with RKO (setting [18]), 3 nM; in the test with RKO (setting [19]), 2.88 nM. In addition, the IC50 is > 20000 nM with SNU-C1 (setting [20]); > 20000 nM on hp70S6K1 (RPS6KB1); > 20000 nM at hKDR; > 20000 nM at hJAK2; 3990 nM on hGSK3b; > 20000 nM on hFLT3. Besides, the EC50 in [2] (setting [9]) is 4.2 nM; in test [2] (setting [10]), 4 nM; in the test with INS-1E cells (setting [11]) it was > 10000 nM; with NCI-H716 cells (setting [12]) it was > 10000 nM; in the test on HeLa cells it was > 10000 nM.

As to `COc1cc(NCc2ccc3nc(N)nc(N)c3c2C)cc(OC)c1OC` [trimetrexate, reference compound], the IC50 in [1] (setting [7]) is 4400 nM; in test [1] (setting [8]) it was 4420 nM; with DLD-1 (setting [4]) it was 200 nM; with DLD-1 (DLD-1, read-out: Basal_Viability ATP DLD-1) it was 195 nM; in the test on SW480 (setting [13]), 59 nM; in the test on SW480 (SW480, read-out: Basal_Viability ATP SW480) it was 59.1 nM. Besides, the IC50 with HCT116 (setting [14]) was found to be 23 nM; in the test on HCT116 (setting [15]) it was 23.1 nM; in [3] (setting [5]) it was 4 nM; in test [3] (setting [6]), 3.92 nM; in the test on Colo320 (setting [16]) it was 390 nM; in the test with Colo320 (COLO 320, read-out: Basal_Viability ATP Colo 320) it was 386 nM. Further, the IC50 with HT-29 (setting [17]) came out at 21 nM; with HT-29 (Homo sapiens, HT-29, read-out: Basal_Viability ATP HT-29) it was 21.2 nM; in the test with RKO (setting [18]), 3 nM; in the test with RKO (setting [19]), 2.72 nM; in the test with SNU-C1 (setting [20]) it was 5100 nM; with SNU-C1 (SNU-C1, read-out: Basal_Viability ATP SNU-C1), 5130 nM. Besides, the IC50 on hp70S6K1 (RPS6KB1), on hKDR, on hJAK2, on hGSK3b and at hFLT3 was > 20000 nM in each case. Besides, the EC50 in [2] (setting [9]) was 3.3 nM; in test [2] (setting [10]) it was 3 nM; in the test on INS-1E cells (setting [11]), > 10000 nM; with NCI-H716 cells (setting [12]), > 10000 nM; with HeLa cells, > 10000 nM.
